US6187802A, “Substituted 4-arylmethylene-2-imino-2,3-dihydrothiazoles and derivatives and their pharmaceutical use” (Knoll Aktiengesellschaft, priority 1997, dated 2001)
Counter-ions that a name gives are not always drawn.

How the values were obtained:
[1] = target: T1, dopamine (DA) reuptake sites (Rattus norvegicus, UniProt P23977); experiment: displacement of [3H]GBR 12935 from dopamine reuptake sites, striatal membranes; format: binding; details: 10^-6 M test compound, [3H]GBR 12935 1 nM, one test only, read-out: DA uptake (% displacement of specific binding of tritiated ligand)
T1 construct: Striatal tissue from the brains of male Charles River rats weighing 150-250 g; from tissue; host or cells: rat brain striatum (crude synaptosomes in A1, washed membranes in A4)
Protocol: Striatal tissue from the brains of male Charles River rats weighing 150-250 g was homogenised in ice-cold 0.32M sucrose (1:80 w/v) using a motor driven teflon pestle (12 strokes, 800 rpm) and centrifuged at 1000 g for 12 minutes. The supernatant was stored on ice and the pellet was resuspended in 0.32M sucrose (1:80 w/v) and centrifuged at 850 g for 10 minutes. Combined supernatants were diluted to 1:320 w/v with ice-cold 50 mM Tris-HCl, pH 7.4 (at 25° C.) containing 200 mM sodium chloride and 5 mM potassium chloride (Tris buffer) and centrifuged at 40,000 g for 10 minutes. The resulting pellet was resuspended in 10 ml of 50 mM Tris buffer, incubated at 37° C. for 10 min, diluted in 50 mM Tris buffer (1:320 w/v) and recentrifuged at 40,000 g for 10 minutes. The final pellet was resuspended in 50 mM Tris buffer (equivalent to 1.25 mg wet weight of tissue/ml) and used immediately in the binding assay. All centrifugations were carried out at 4° C.
Membranes (800 μl; equivalent to 1 mg wet weight of tissue/tube) were incubated with 100 μl [^3 H]GBR 12935 at a single concentration of 1 nM and 100 μl of distilled water (total binding) or 100 μl of test compound (10^-6 M) or 100 μl of mazindol (1 μM; non-specific binding) for 90 min at 4° C.
Membrane bound radioactivity was recovered by filtration under vacuum through Whatman GF/C filters, pre-soaked for 1 h in 0.5% polyethylenimine,using a Brandel cell harvester. Filters were rapidly washed with 16 ml of ice-cold 50 mM Tris-HCl, pH 7.4 and radioactivity determined by liquid scintillation counting (2 ml Packard MV Gold scintillator).
(§1) For each of these tests measuring the ability of compounds of Formula I to displace standard ligands from dopamine (DA), 5-hydroxytryptamine (5-HT) and noradrenaline (NA) reuptake sites in vitro, the percentage displacement of specific binding of tritiated ligand by 10^-6 M test compound was calculated in the following way:
(§2) Firstly, specific binding of tritiated ligand in the absence (A) and presence (B) of test compound was determined:
(§3) In the absence of compound:
(§4) A (dpm)=Total binding (dpm)-Non-specific binding (dpm)
(§5) In the presence of compound (10^-6 M):
(§6) B (dpm)=Binding at 10^-6 M (dpm)-Non-specific binding (dpm)
(§7) The specific binding of tritiated ligand in the presence (B) of compound was then converted to a percentage of specific binding of tritiated ligand in the absence (A) of compound:
(§8) % Specific binding at 10^-6 M=B (dpm)/A(dpm)×100
(§9) The percentage displacement of specific binding of trtiated ligand by the test compound (10^-6 M) was then obtained by subtraction of the percentage specific binding in the presence of compound from the percentage specific binding in the absence of compound, which is taken as the maximum binding and so equals 100%:
(§10) % Displacement at 10^-6 M=100-% Specific binding at 10^-6 M.
(§11) The values given below in Table 2 for examples 6 to 76 are % displacement of specific binding of tritiated ligand by 10^-6 M test compound and represent results from one test only. IA refers to <50% displacement.

[2] = target: T2, 5-hydroxytryptamine (5-HT) reuptake sites (Rattus norvegicus, UniProt P31652); experiment: displacement of [3H]paroxetine from 5-HT reuptake sites, frontal cortical membranes; format: binding; details: 10^-6 M test compound, [3H]paroxetine 30 pM, one test only, read-out: 5-HT uptake (% displacement of specific binding of tritiated ligand)
T2 construct: Frontal cortical tissue from the brains of male Sprague-Dawley rats; from tissue; host or cells: rat brain frontal cortex (crude synaptosomes in A2, washed membranes in A5)
Protocol: Frontal cortical tissue from the brains of male Charles River rats weighing 150-250 g was homogenised in ice-cold 0.25M sucrose (1:30 w/v) using a Kinematic polytron (speed setting 6 for 30 seconds) and centrifuged at 1000 g for 12 minutes. The supernatant was stored on ice and the pellet was resuspended in 0.25M sucrose (1:20 w/v) and centrifuged at 850 g for 10 minutes. Combined supernatants were diluted to 1:100 w/v with ice-cold 50 mM Tris-HCl, pH 7.5 (at 25° C.) containing 120 mM sodium chloride and 5 mM potassium chloride (Tris buffer) and centrifuged at 40,000 g for 10 minutes. The resulting pellet was resuspended in 50 mM Tris buffer (1:100 w/v) and recentrifuged at 40,000 g for 10 minutes. The final pellet was resuspended in 50 mM Tris buffer (equivalent to 2 mg wet weight of tissue/ml) and used immediately in the binding assay. All centrifugations were carried out at 4° C.
Membranes (1000 μl; equivalent to 2 mg wet weight of tissue/tube) were incubated with 200 μl [^3 H]paroxetine at a single concentration of 30 pM and 200 μl of distilled water (total binding) or 200 μl of test compound (10^-6 M) or 200 μl of citalopram (1 μM; non-specific binding) for 2 h at 22° C.
Membrane bound radioactivity was recovered by filtration under vacuum through Whatman GFIC filters using a Brandel cell harvester. Filters were rapidly washed with 16 ml ice-cold 50 mM Tris buffer and radioactivity determined by liquid scintillation counting (2 ml Packard MV Gold scintillator).
as §1, §2, §3, §4, §5, §6, §7, §8, §9, §10, §11

[3] = target: T3, noradrenaline (NA) reuptake sites (Rattus norvegicus, UniProt Q63380); experiment: displacement of [3H]nisoxetine from noradrenaline reuptake sites, frontal cortical membranes; details: 10^-6 M test compound, [3H]nisoxetine 0.6 nM, one test only, read-out: NA uptake (% displacement of specific binding of tritiated ligand)
T3 construct: Frontal cortical tissue from the brains of male Sprague-Dawley rats; from tissue; host or cells: rat brain frontal cortex (crude synaptosomes in A3, washed membranes in A6)
Protocol: Frontal cortical tissue from the brains of male Charles River rats weighing 150-250 g was homogenised in ice-cold 50 mM Tris-HCl, pH 7.4 (at 25° C.) containing 120 mM sodium chloride and 5 mM potassium chloride (Tris buffer; 1:60 w/v) using a Kinematic polytron (speed setting 6 for 30 seconds) and centrifuged at 40,000 g for 10 minutes. The supernatant was discarded and the pellet rehomogenised in Tris buffer, 1:60 w/v, and centrifuged at 40,000 g for 10 minutes. This step was repeated twice more so that, in total, the brain tissue was homogenised and centrifuged four times. The final pellet was resuspended in 50 mM Tris-HCl, pH 7.4 containing 300 mM sodium chloride and 5 mM potassium chloride (equivalent to 25 mg wet weight of tissue/ml) and used immediately in the binding assay. All centrifugations were performed at 4° C.
Membranes (400 μl; equivalent to 10 mg wet weight of tissue/tube) were incubated with 50 μl [^3 H]nisoxetine at a single concentration of 0.6 nM and 50 μl of distilled water (total binding) or 50 μl of test compound (10^-6 M) or 50 μl of mazindol (1 μM; non-specific binding) for 4 h at 4° C.
Membrane bound radioactivity was recovered by filtration under vacuum through Skatron 11734 filters using a Skatron cell harvester. Filters were rapidly washed with ice-cold 50 mM Tris-HCl, pH 7.4 containing 120 mM sodium chloride and 5 mM potassium chloride (wash setting 9,9,0) and radioactivity determined by liquid scintillation counting (1 ml Packard MV Gold scintillator).
as §1, §2, §3, §4, §5, §6, §7, §8, §9, §10, §11

T1 sequence (P23977 whole entry): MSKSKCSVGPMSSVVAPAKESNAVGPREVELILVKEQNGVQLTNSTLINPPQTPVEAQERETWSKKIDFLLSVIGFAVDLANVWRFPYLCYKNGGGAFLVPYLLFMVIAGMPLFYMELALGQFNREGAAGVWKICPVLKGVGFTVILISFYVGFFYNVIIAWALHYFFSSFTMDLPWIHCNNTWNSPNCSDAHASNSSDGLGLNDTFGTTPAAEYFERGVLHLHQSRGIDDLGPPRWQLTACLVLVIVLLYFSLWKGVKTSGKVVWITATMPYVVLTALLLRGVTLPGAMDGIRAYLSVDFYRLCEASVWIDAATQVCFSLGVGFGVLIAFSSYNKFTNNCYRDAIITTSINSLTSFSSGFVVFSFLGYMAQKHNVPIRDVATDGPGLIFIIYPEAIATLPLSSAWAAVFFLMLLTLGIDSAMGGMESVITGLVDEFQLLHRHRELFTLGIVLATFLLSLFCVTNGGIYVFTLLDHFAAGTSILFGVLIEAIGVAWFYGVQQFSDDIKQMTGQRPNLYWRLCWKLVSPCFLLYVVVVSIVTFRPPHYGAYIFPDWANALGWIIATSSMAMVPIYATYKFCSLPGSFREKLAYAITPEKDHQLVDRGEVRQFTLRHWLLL
T3 sequence (Q63380 1-617): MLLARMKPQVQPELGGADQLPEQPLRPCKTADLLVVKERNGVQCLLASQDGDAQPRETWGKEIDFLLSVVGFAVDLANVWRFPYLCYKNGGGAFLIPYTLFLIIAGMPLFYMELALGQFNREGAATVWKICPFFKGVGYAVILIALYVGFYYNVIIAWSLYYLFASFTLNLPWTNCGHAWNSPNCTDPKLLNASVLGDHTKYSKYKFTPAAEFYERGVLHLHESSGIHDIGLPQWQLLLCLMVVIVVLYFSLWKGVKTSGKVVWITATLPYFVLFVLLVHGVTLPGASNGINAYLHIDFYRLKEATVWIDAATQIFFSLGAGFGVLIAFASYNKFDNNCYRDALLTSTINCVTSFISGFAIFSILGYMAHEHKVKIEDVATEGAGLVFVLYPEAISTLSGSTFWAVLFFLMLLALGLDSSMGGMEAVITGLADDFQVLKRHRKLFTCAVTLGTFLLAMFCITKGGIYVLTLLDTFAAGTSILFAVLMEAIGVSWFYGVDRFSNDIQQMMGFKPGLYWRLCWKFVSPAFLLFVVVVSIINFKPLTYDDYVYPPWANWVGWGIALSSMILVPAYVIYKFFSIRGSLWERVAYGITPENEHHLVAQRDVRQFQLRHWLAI
T2 sequence (P31652 whole entry): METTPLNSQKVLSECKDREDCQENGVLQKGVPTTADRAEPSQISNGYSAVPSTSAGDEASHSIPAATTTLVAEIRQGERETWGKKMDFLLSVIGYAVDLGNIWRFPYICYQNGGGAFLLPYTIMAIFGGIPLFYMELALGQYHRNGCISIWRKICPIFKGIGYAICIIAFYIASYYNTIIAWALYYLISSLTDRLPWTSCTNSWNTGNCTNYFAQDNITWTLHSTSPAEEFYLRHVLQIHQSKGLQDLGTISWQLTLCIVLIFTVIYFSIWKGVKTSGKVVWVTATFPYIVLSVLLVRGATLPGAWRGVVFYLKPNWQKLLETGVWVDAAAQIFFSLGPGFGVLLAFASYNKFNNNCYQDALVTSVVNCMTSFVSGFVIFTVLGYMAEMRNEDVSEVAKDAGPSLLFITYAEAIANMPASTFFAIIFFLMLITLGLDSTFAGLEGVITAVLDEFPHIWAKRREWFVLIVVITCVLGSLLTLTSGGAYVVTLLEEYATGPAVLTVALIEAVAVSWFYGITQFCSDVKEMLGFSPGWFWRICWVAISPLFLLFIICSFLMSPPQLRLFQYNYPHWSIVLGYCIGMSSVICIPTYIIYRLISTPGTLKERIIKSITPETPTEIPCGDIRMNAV

Compound | inhibition at 1 µM [1] | inhibition at 1 µM [2] | inhibition at 1 µM [3]
Clc1ccc(C2(c3csc(=NCc4ccccc4)n3Cc3ccccc3)CCC2)cc1Cl [Example 22, 3-Benzyl-2-benzylimino-4-[1-(3,4-dichlorophenyl)cyclobutyl]-2,3-dihydrothiazole hydrobromide] | 79% | < 50% | < 50%
Fc1ccc(CN=c2scc(C3(c4ccc(Cl)c(Cl)c4)CCC3)n2Cc2ccc(F)cc2)cc1 [Example 23, 4-[1-(3,4-Dichlorophenyl)cyclobutyl]-3-(4-fluorobenzyl)-2-(4-fluorobenzylimino)-2,3-dihydrothiazole hydrobromide] | 83% | < 50% | < 50%
Clc1ccc(C2(c3csc(=NCCc4ccccc4)n3CCc3ccccc3)CCC2)cc1Cl [Example 24, 4-[1-(3,4-Dichlorophenyl)cyclobutyl]-3-phenethyl-2-phenethylimino-2,3-dihydrothiazole hydrobromide] | 90% | < 50% | < 50%
Clc1ccc(C2(c3csc(=NCc4cccnc4)n3Cc3cccnc3)CCC2)cc1Cl [Example 25, 4-[1-(3,4-Dichlorophenyl)cyclobutyl]-3-(3-pyridylmethyl)-2-(3-pyridylmethylimino)-2,3-dihydrothiazole hydrobromide] | 108% | 95% | 66%
Clc1ccc(C2(c3csc(=NCc4ccco4)n3Cc3ccco3)CCC2)cc1Cl [Example 26, 4-[1-(3,4-Dichlorophenyl)cyclobutyl]-3-furfuryl-2-furfurylimino-2,3-dihydrothiazole hydrobromide] | 116% | 92% | < 50%
Clc1ccc(C2(c3csc(=Nc4ccccc4)n3-c3ccccc3)CCC2)cc1Cl [Example 27, 4-[1-(3,4-Dichlorophenyl)cyclobutyl]-3-phenyl-2-phenylimino-2,3-dihydrothiazole hydrobromide] | 84% | < 50% | < 50%
Cc1ccc(N=c2scc(C3(c4ccc(Cl)c(Cl)c4)CCC3)n2-c2ccc(C)cc2)cc1 [Example 28, 4-[1-(3,4-Dichlorophenyl)cyclobutyl]-3-(p-tolyl)-2-(ptolylimino)-2,3-dihydrothiazole hydrobromide] | 71% | < 50% | < 50%
Cc1ccccc1N=c1scc(C2(c3ccc(Cl)c(Cl)c3)CCC2)n1-c1ccccc1C [Example 29, 4-[1-(3,4-Dichlorophenyl)cyclobutyl]-3-(o-tolyl)-2-(o-tolylimino)-2,3-dihydrothiazole hydrobromide] | 74% | < 50% | < 50%
FC(F)(F)c1cccc(N=c2scc(C3(c4ccc(Cl)c(Cl)c4)CCC3)n2-c2cccc(C(F)(F)F)c2)c1 [Example 30, 4-[1-(3,4-Dichlorophenyl)cyclobutyl]-3-(3-trifluoromethylphenyl)-2-(3-trifluoromethylphenylimino)-2,3-dihydrothiazole hydrobromide] | 79% | < 50% | < 50%
Cc1ccc(N=c2scc(C3(c4ccc(Cl)c(Cl)c4)CCC3)n2-c2ccc(C)cc2C)c(C)c1 [Example 31, 4-[1-(3,4-Dichlorophenyl)cyclobutyl]-3-(2,4-xylyl)-2-(2,4-xylylimino)-2,3-dihydrothiazole hydrobromide] | 63% | < 50% | < 50%
CCOc1ccc(N=c2scc(C3(c4ccc(Cl)c(Cl)c4)CCC3)n2-c2ccc(OCC)cc2)cc1 [Example 32, 4-[1-(3,4-Dichlorophenyl)cyclobutyl]-3-(4-ethoxyphenyl)-2-(4-ethoxyphenylimino)-2,3-dihydrothiazole hydrobromide] | 69% | < 50% | < 50%
COc1ccc(CCN=c2scc(C3(c4ccc(Cl)c(Cl)c4)CCC3)n2CCc2ccc(OC)c(OC)c2)cc1OC [Example 33, 4-[1-(3,4-Dichlorophenyi)cyclobutyl]-3-(3,4-dimethoxyphenethyl)-2-(3,4-dimethoxyphenethylimino)-2,3-dihydnothiazole hydrobromide] | 99% | 63% | < 50%
C1=C(C2(c3ccc4ccccc4c3)CCC2)N2CCCN=C2S1 [Example 34, 3-[1-(2-Naphthyl)cyclobutyl]-6,7-dihydro-5H-thiazolo[3,2-a]pyrimidine hydrobromide] | 109% | 100% | 110%
CN=c1scc(C2(c3ccc4ccccc4c3)CCC2)n1C [Example 36, 3-Methyl-2-methylimino-4-[1-(2-naphthyl)cyclobutyl]-2,3-dihydrothiazole hydrobromide] | 108% | 101% | 101%
CCN=c1scc(C2(c3ccc4ccccc4c3)CCC2)n1CC [Example 37, 3-Ethyl-2-ethylimino-4-[1-(2-naphthyl)cyclobutyl]-2,3-dihydrothiazole hydrobromide] | 110% | 101% | 102%
